This note sets out measurements from ChEMBL document CHEMBL4417631, “Oral peptide inhibitors of interleukin-23 receptor and their use to treat inflammatory bowel diseases” (2017).

The structures appear in SMILES notation. Where a SMILES comes first, the peptide text is derived from it. [ ]: non-standard residue; d: D form. hLeu = CC(C)CC[C@H](N)C(=O)O

The experiment deals with T1, Interleukin-23 receptor (Homo sapiens, UniProt Q5VWK5).
T1 sequence (Q5VWK5 whole entry): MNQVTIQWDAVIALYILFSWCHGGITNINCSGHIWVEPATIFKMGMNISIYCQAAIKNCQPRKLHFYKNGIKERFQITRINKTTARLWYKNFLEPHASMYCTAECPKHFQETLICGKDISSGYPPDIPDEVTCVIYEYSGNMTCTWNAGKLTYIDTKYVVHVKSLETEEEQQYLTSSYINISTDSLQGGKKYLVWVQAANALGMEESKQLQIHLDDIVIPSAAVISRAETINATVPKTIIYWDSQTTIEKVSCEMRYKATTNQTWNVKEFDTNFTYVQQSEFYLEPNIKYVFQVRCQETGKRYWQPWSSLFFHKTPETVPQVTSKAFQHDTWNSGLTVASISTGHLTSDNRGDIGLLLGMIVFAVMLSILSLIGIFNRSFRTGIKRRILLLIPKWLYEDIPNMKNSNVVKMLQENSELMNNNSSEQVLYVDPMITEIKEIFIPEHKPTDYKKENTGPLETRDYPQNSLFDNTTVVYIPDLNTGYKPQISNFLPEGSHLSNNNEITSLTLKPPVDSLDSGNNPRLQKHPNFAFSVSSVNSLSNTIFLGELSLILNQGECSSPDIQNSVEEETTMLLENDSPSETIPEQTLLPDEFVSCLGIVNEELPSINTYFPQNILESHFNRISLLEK
The experiment is described as follows: Inhibition of interleukin-23 binding to human interleukin-23 receptor incubated for 2 hrs by competitive binding ELISA.

A word on the IC50: it is the concentration that inhibits the measured activity by half. A lower IC50 goes with higher potency. On to `CC(C)[C@H](NC(=O)[C@H](Cc1c[nH]c2ccccc12)NC(=O)[C@H](CC(=O)O)NC(=O)[C@H](C)NC(=O)[C@@H](N)CS)C(=O)N[C@@H](CS)C(=O)N[C@@H](Cc1ccc(O)cc1)C(=O)N[C@H](CC(=O)N[C@@H](Cc1cnc[nH]1)C(=O)N[C@H](C(=O)N[C@@H](Cc1ccccc1)C(=O)NCC(N)=O)[C@@H](C)O)Cc1c[nH]c2ccccc12`, for which the IC50 was more than 1 µM.
`CC(=O)NC1CCC/C=C\CC(C(=O)N[C@@H](Cc2ccc(O)cc2)C(=O)N[C@@H](Cc2c[nH]c3ccccc23)C(=O)N[C@@H](CCCNC(=N)N)C(=O)N[C@@H](CCCCN)C(=O)N[C@@H](Cc2ccccc2)C(=O)NCC(=O)NCCOCC(=O)N[C@H](CCCCN)C(N)=O)NC(=O)[C@H](CCC(N)=O)NC(=O)[C@H](Cc2c[nH]c3ccccc23)NC(=O)[C@H]([C@@H](C)O)NC(=O)[C@H](CCCNC(=N)N)NC1=O` (stereo partly drawn) yielded an IC50 of 0.1 to 1 µM.
Under `CC(=O)N[C@@H](CS)C(=O)N[C@@H](CCCNC(=N)N)C(=O)N[C@@H](CC(=O)O)C(=O)N[C@@H](Cc1c[nH]c2ccccc12)C(=O)N[C@@H](CCC(N)=O)C(=O)N[C@@H](CS)C(=O)N[C@@H](Cc1ccc(O)cc1)C(=O)N[C@@H](Cc1c[nH]c2ccccc12)C(=O)N(C)[C@@H](CCCNC(=N)N)C(=O)N[C@@H](CCCCN)C(=O)N[C@@H](Cc1ccccc1)C(=O)NCC(=O)NCCOCCC(=O)N[C@H](CCCCN)C(N)=O` stands more than 1 µM; under `CC(=O)N[C@@H](CS)C(=O)N[C@@H](C)C(=O)N[C@@H](CC(=O)O)C(=O)N[C@@H](Cc1c[nH]c2ccccc12)C(=O)N[C@H](C(=O)N[C@@H](CS)C(=O)N[C@@H](Cc1ccc(O)cc1)C(=O)N[C@@H](Cc1c[nH]c2ccccc12)C(=O)N[C@@H](Cc1cnc[nH]1)C(=O)N[C@H](C(=O)N[C@@H](Cc1ccccc1)C(=O)N[C@H](CCCCN)C(=O)O)[C@@H](C)O)C(C)C`, more than 1 µM.
The value for `CC(=O)N[C@@H](CC(=O)O)C(=O)N[C@H](C(=O)N1CCC[C@H]1C(=O)N[C@@H](CCCNC(=N)N)C(=O)N[C@@H](CS)C(=O)N[C@@H](CCCNC(=N)N)C(=O)N[C@H](C(=O)N[C@@H](Cc1c[nH]c2ccccc12)C(=O)N[C@@H](CCC(=O)O)C(=O)N[C@@H](CS)C(=O)N[C@@H](Cc1ccc(O)cc1)C(=O)N[C@@H](Cc1c[nH]c2ccccc12)C(=O)N[C@@H](Cc1cnc[nH]1)C(=O)N[C@H](C(=O)N[C@@H](Cc1ccccc1)C(=O)NCC(N)=O)[C@@H](C)O)[C@@H](C)O)[C@@H](C)O` was 0.5 to 1 µM.
Turning to `CC(=O)N[C@@H](CS)C(=O)N[C@@H](CCC(N)=O)C(=O)N[C@H](C(=O)N[C@@H](Cc1c[nH]c2ccccc12)C(=O)N[C@@H](CCC(N)=O)C(=O)N[C@@H](CS)C(=O)N[C@@H](Cc1ccc(O)cc1)C(=O)N[C@@H](Cc1c[nH]c2ccccc12)C(=O)N[C@@H](CCCNC(=N)N)C(=O)N[C@@H](CCC(=O)O)C(=O)N[C@@H](CC(N)=O)C(=O)NCC(=O)NCCOCC(=O)N[C@H](CCCCN)C(N)=O)[C@@H](C)O`, the IC50 was less than 0.5 µM.
As to `CC(C)[C@H](NC(=O)[C@H](Cc1c[nH]c2ccccc12)NC(=O)[C@H](CC(=O)O)NC(=O)[C@H](C)NC(=O)[C@@H](N)CS)C(=O)N[C@@H](CS)C(=O)N[C@@H](Cc1ccc(O)cc1)C(=O)N[C@@H](Cc1c[nH]c2ccccc12)C(=O)N[C@@H](Cc1cnc[nH]1)C(=O)N[C@H](C(=O)N[C@@H](Cc1ccccc1)C(=O)NCC(=O)N[C@@H](CCCCNC(=O)COCC(=O)NCCCC[C@H](NC(=O)CNC(=O)[C@H](Cc1ccccc1)NC(=O)[C@@H](NC(=O)[C@H](Cc1cnc[nH]1)NC(=O)[C@H](Cc1c[nH]c2ccccc12)NC(=O)[C@H](Cc1ccc(O)cc1)NC(=O)[C@H](CS)NC(=O)[C@@H](NC(=O)[C@H](Cc1c[nH]c2ccccc12)NC(=O)[C@H](CC(=O)O)NC(=O)[C@H](C)NC(=O)[C@@H](N)CS)C(C)C)[C@@H](C)O)C(=O)O)C(=O)O)[C@@H](C)O`, the concentration for half-maximal inhibition (IC50) lay in the range of 1 to 10 µM.
The value for `CC(=O)N[C@@H](CS)C(=O)N[C@@H](C)C(=O)N[C@@H](CC(=O)O)C(=O)N[C@@H](Cc1c[nH]c2ccccc12)C(=O)N[C@H](C(=O)N[C@@H](CS)C(=O)N[C@@H](Cc1ccc(O)cc1)C(=O)N[C@@H](Cc1c[nH]c2ccccc12)C(=O)N[C@@H](Cc1cnc[nH]1)C(=O)N[C@@H](CCCCN)C(=O)N[C@@H](Cc1ccccc1)C(=O)NCC(=O)O)C(C)C` was more than 1 µM; that for `COc1ccc(C[C@H](NC(=O)[C@@H](NC(=O)[C@H](CCC(N)=O)NC(=O)[C@H](Cc2c[nH]c3ccccc23)NC(=O)[C@@H](NC(=O)[C@H](CCC(N)=O)NC(=O)[C@@H](NC(C)=O)C(C)(C)S)[C@@H](C)O)C(C)(C)S)C(=O)N[C@@H](Cc2ccc3ccccc3c2)C(=O)N[C@@](C)(CCCCN)C(=O)N[C@@H](CCCCNC(CC(C)C)=C2C(=O)CC(C)(C)CC2=O)C(=O)N[C@@H](CC(N)=O)C(=O)NCC(N)=O)cc1` was 0.1 to 1 µM.
Under `N=C(N)NCCC[C@H](NC(=O)[C@H](Cc1c[nH]c2ccccc12)NC(=O)[C@H](Cc1ccc(O)cc1)NC(=O)[C@@H]1CSCCCC(=O)N[C@@H](CCC(N)=O)C(=O)N[C@@H](CC(=O)O)C(=O)N[C@@H](Cc2c[nH]c3ccccc23)C(=O)N[C@@H](CCC(N)=O)C(=O)N1)C(=O)N[C@@H](CCC(=O)O)C(=O)N[C@@H](CC(N)=O)C(=O)NCC(=O)NCCOCC(=O)N[C@H](CCCCN)C(N)=O` stands 6 µM; under `CC(=O)N[C@H](C(=O)N[C@@](C)(CCCN)C(=O)N[C@H](C(=O)N[C@@H](Cc1c[nH]c2ccccc12)C(=O)N[C@@H](CCC(N)=O)C(=O)N[C@H](C(=O)N[C@@H](Cc1ccc(OCCN)cc1)C(=O)N[C@@H](Cc1ccc2ccccc2c1)C(=O)N[C@@](C)(CCCCN)C(=O)N[C@@H](CCC(=O)O)C(=O)N[C@@H](CC(N)=O)C(=O)NCC(N)=O)C(C)(C)S)[C@@H](C)O)C(C)(C)S`, 0.1 to 1 µM; under `CC(C)[C@H](NC(=O)[C@H](Cc1c[nH]c2ccccc12)NC(=O)[C@H](CC(=O)O)NC(=O)[C@H](C)NC(=O)[C@@H](N)CS)C(=O)N[C@@H](CS)C(=O)N[C@@H](Cc1ccc(O)cc1)C(=O)N[C@@H](Cc1c[nH]c2ccccc12)C(N)=O`, more than 1 µM.
Under `CC(=O)NCCCC[C@H](NC(=O)[C@](C)(CCCCN)NC(=O)[C@H](Cc1ccc2ccccc2c1)NC(=O)[C@H](Cc1ccc(N)cc1)NC(=O)[C@@H](NC(=O)[C@H](CCC(N)=O)NC(=O)[C@H](Cc1c[nH]c2ccccc12)NC(=O)[C@@H](NC(=O)[C@H](CCC(N)=O)NC(=O)[C@@H](NC(C)=O)C(C)(C)S)[C@@H](C)O)C(C)(C)S)C(=O)N[C@@H](CC(N)=O)C(=O)NCC(N)=O` stands 0.1 to 1 µM; under `CC(=O)N[C@@H](CS)C(=O)N[C@@H](CCC(N)=O)C(=O)N[C@H](C(=O)N[C@H](C(=O)N[C@@H](CCC(N)=O)C(=O)N[C@@H](CS)C(=O)N[C@@H](Cc1ccc(O)cc1)C(=O)N[C@@H](Cc1c[nH]c2ccccc12)C(=O)N[C@@H](CCC(C)C)C(=O)N[C@@H](CCC(=O)O)C(=O)N[C@@H](CC(N)=O)C(=O)NCC(N)=O)[C@@H](C)O)[C@@H](C)O` (Ac-CQTTQCYW[hLeu]ENG-NH2), more than 10 µM; under `CC(C)CC[C@H](NC(=O)[C@H](Cc1c[nH]c2ccccc12)NC(=O)[C@H](Cc1ccc(O)cc1)NC(=O)[C@H](CS)NC(=O)[C@H](CCC(N)=O)NC(=O)[C@H](Cc1c[nH]c2ccccc12)NC(=O)[C@@H](NC(=O)[C@H](CCC(N)=O)NC(=O)[C@@H](N)CS)[C@@H](C)O)C(=O)N[C@@H](CCC(=O)O)C(=O)N[C@@H](CC(N)=O)C(=O)NCC(=O)NCCOCC(=O)N[C@H](CCCCN)C(N)=O`, less than 0.5 µM.
The compound `CC(=O)N[C@@H](CS)C(=O)N[C@@H](C)C(=O)N[C@@H](CC(=O)O)C(=O)N[C@@H](Cc1c[nH]c2ccccc12)C(=O)N[C@H](C(=O)N[C@@H](CS)C(=O)N[C@@H](Cc1ccc(O)cc1)C(=O)N[C@@H](Cc1c[nH]c2ccccc12)C(=O)N[C@@H](Cc1cnc[nH]1)C(=O)N[C@H](C(=O)N[C@@H](Cc1ccccc1)C(=O)NCC(=O)N[C@@H](C)C(=O)N[C@@H](C)C(=O)N[C@H](CCCCN)C(=O)O)[C@@H](C)O)C(C)C` yielded an IC50 of less than 0.5 µM.
For the compound `NC(=O)CNC(=O)[C@H](Cc1ccc(O)cc1)NC(=O)[C@H](Cc1cnc[nH]1)NC(=O)[C@H](Cc1cnc[nH]1)NC(=O)[C@H](Cc1c[nH]c2ccccc12)NC(=O)[C@H](Cc1ccc(O)cc1)NC(=O)[C@H](CS)NC(=O)[C@H](CCC(=O)O)NC(=O)[C@H](Cc1c[nH]c2ccccc12)NC(=O)[C@H](CC(N)=O)NC(=O)[C@H](CO)NC(=O)[C@@H](N)CS` (H-CSNWECYWHHYG-NH2), the IC50 fell in the range of 0.5 to 1 µM.
The value for `CC(=O)N[C@@H](CS)C(=O)N[C@@H](C)C(=O)N[C@@H](CC(=O)O)C(=O)N[C@@H](Cc1c[nH]c2ccccc12)C(=O)N[C@H](C(=O)N[C@@H](CS)C(=O)N[C@@H](Cc1ccc(O)cc1)C(=O)N[C@@H](Cc1c[nH]c2ccccc12)C(=O)N[C@@H](Cc1cnc[nH]1)C(=O)N[C@H](C(=O)N[C@@H](Cc1cnc[nH]1)C(=O)NCC(=O)N[C@@H](CCC(=O)O)C(=O)N[C@@H](CCCNC(=N)N)C(N)=O)[C@@H](C)O)C(C)C` was less than 0.5 µM.
